The numbers were not newly measured in patent publication US9630918B2, “Cysteine, N-acetylcysteine, and penicillamine related compounds, pharmaceutical compositions thereof, and methods of use” (priority 2015, dated 2017), which cites them from elsewhere.

Test in data set [1]: not given
The source holds these as a separate data set.

For another data set, the system named is stable COPD. As to conditions: patients with stable COPD, clinical study.

As to `CC(C)(S)[C@@H](N)C(=O)O` [D-penicillamine, D-Penicillamine], the interpatient oral variability result is “high degree of interpatient oral variability”.
On to `CC(=O)N[C@@H](CS)C(=O)O` [NAC, N-Acetyl-L-cysteine], for which the oral bioavailability in data set [1] is 4-10%. Further, in the data set on stable COPD, the exacerbation frequency result is “decrease exacerbation frequency” and the small airways function result is “improve small airways function”.
